# Source: ChEMBL document CHEMBL1201862, “PubChem BioAssay data set” (2004)
# Active and inactive are the calls of the source.
# Tests used:
# [1] = biological target: T1, Histone-lysine N-methyltransferase NSD2 (Homo sapiens, UniProt O96028); format: biochemical
# T1 sequence (O96028 whole entry): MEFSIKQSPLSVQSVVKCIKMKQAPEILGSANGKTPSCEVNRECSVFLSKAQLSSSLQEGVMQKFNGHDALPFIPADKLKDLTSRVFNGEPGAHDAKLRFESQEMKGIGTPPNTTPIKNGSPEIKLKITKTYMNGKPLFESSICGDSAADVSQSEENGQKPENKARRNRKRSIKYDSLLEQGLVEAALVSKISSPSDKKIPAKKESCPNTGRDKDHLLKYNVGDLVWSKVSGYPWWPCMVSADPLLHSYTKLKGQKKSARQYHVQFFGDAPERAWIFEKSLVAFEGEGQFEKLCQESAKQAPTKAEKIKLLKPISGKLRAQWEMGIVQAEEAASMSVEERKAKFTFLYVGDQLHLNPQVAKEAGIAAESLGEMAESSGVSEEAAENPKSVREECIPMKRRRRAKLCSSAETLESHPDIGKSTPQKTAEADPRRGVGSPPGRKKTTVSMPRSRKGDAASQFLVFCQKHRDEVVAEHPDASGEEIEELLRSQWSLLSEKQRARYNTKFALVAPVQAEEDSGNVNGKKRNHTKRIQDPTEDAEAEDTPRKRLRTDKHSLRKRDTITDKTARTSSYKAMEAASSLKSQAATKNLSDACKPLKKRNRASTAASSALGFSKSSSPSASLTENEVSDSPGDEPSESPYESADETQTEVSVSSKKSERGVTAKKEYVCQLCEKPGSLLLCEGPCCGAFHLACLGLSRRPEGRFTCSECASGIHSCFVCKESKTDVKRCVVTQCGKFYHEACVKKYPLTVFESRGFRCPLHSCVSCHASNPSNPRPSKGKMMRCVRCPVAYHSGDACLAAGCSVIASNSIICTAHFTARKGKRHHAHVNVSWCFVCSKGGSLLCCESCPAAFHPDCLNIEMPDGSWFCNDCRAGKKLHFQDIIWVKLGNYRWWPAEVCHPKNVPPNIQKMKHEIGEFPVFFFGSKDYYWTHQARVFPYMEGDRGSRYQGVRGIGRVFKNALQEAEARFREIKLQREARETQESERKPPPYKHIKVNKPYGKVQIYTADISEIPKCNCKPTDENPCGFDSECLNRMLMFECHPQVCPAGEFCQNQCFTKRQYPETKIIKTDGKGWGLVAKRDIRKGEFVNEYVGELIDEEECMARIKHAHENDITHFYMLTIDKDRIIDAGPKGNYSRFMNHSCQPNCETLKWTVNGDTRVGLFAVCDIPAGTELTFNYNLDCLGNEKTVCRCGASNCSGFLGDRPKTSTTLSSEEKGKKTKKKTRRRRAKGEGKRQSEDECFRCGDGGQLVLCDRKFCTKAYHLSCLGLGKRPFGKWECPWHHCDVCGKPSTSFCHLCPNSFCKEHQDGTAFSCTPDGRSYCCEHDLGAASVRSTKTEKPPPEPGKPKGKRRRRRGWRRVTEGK
# [2] = biological target: T2, Apoptotic protease-activating factor 1 (Homo sapiens, UniProt O14727); format: functional
# T2 sequence (O14727 whole entry): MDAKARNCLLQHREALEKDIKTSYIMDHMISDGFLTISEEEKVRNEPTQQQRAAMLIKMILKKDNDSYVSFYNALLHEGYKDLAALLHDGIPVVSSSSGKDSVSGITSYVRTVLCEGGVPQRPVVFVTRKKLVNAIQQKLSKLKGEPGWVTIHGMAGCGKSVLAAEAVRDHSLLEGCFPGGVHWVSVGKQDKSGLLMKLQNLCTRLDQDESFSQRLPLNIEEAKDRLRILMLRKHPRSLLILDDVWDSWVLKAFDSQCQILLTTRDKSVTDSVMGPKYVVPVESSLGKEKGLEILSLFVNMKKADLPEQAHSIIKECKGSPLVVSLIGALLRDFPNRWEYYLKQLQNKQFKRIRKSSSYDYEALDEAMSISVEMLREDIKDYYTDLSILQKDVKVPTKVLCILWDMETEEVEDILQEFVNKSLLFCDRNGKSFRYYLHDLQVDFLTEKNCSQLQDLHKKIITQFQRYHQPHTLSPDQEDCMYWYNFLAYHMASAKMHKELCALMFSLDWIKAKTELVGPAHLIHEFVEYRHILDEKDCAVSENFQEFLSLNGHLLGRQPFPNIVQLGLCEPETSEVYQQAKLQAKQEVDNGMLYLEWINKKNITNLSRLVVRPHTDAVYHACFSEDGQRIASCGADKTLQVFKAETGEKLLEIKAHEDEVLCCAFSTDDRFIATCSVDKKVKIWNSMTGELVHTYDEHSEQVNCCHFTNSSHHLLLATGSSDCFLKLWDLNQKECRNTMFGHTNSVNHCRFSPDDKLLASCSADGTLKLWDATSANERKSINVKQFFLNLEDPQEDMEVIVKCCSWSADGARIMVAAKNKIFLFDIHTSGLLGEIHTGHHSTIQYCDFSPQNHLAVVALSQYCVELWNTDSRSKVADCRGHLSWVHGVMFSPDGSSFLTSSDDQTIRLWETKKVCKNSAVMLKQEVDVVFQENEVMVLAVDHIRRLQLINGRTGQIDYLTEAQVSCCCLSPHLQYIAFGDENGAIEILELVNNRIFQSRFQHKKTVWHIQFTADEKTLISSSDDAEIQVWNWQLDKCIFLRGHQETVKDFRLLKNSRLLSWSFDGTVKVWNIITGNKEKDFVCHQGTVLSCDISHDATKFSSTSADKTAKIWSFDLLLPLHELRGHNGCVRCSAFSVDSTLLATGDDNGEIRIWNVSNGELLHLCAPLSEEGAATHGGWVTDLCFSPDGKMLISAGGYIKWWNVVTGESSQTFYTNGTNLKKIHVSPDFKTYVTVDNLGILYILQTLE
# [3] = biological target: Phospholipase A2 (Homo sapiens, UniProt P04054); format: functional;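 also: confirmatory dose-response counterscreen on phospholipase A2, testing hits that came from an ultra-high-throughput screen for ATG4B inhibitors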
# Sequence of Phospholipase A2 (P04054 whole entry): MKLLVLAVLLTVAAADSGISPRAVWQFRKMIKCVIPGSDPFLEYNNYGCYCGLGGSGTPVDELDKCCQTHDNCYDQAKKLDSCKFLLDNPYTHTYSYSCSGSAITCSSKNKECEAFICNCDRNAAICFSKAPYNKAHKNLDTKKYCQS
# [4] = biological target: T3, Cysteine protease ATG4B (Homo sapiens, UniProt Q9Y4P1); format: functional;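 also: Fluorescence-based dose-response confirmation assay measuring inhibition of ATG4B activity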
# T3 sequence (Q9Y4P1 whole entry): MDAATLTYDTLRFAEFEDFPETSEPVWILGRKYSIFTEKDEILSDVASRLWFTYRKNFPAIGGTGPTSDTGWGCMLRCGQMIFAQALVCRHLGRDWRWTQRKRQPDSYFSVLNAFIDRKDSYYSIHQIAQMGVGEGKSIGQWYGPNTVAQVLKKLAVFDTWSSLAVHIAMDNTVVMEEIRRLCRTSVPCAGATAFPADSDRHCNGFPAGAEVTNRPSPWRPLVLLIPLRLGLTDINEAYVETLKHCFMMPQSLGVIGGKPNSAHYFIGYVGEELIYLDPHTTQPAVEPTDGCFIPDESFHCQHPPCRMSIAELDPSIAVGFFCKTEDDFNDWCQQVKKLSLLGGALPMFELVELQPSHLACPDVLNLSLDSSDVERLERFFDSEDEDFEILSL
# [5] = biological target: Dual specificity tyrosine-phosphorylation-regulated kinase 1A (Rattus norvegicus, UniProt Q63470); format: biochemical, Homo sapiens
Structure (SMILES),AC50 [1],IC50 [2],IC50 [3],IC50 [4],AC50 [5]
CCOC(=O)C1=C(C)OC2(O)c3ccccc3C(=O)C12O (centres undefined),8.9 µM (active),2.55 µM (active),–,–,–
COC(=O)c1cc(C)nc2c1C(=O)C(=O)C=C2N1CCOCC1,0.407 µM (active),1.01 µM (active),65.6 µM (inactive),4.45 µM (active),0.983 µM (active)
N#Cc1c(N2CCCC2)nc(N)c2c(N)nc(N3CCCC3)cc12,–,0.181 µM (active),11.7 µM (active),1.64 µM (active),0.287 µM (active)
NS(=O)(=O)c1cc(C(=O)NC2CCSc3ccccc32)ccc1Cl (centres undefined),–,–,24.1 µM (inactive),6.64 µM (active),–
O=C1c2ccccc2C(=O)c2[nH]c(O)nc21,–,6.79 µM (active),–,–,–
